Experimental data from US9447060B2, “Small molecule modulators of pRb inactivation” (The Wistar Institute of Anatomy and Biology, priority 2011, dated 2016).

Tests used:
[1] = test system: SiHa cells; experiment: Cell cycle and apoptosis in SiHa cells, propidium iodide flow cytometry and morphology; format: cell-based; details: 48 hours
Protocol: Since the thiadiazolin-3,5-dione compounds bind to pRb, data was generated regarding their effect in cells infected with HPV. […] DNA content was determined by propidium iodine staining and analysis by flow cytometry.
Cultured cell lines were seeded in 60 mm tissue culture dishes (Falcon) at 1×10^5 cells/well. […] Cells were then trypsinized, washed with phosphate-buffered saline (1.0 mL; PBS), and fixed in ethanol (80%) for 30 minutes on ice. Fixed cells were spun at 500 g for 5 minutes, rehydrated with PBS (1 mL), and spun again to remove any traces of ethanol. Cells were stained with propidium iodide (250 μL; PI), which was prepared by adding PI (100 μL, 2 mg/ml, Sigma) and RNase A (3.5 μL of 30 mg/ml, Sigma) into PBS (10 mL). Cells were then analyzed at the Wistar Institute Flow Cytometry Core Facility using standard equipment, reagents, and methodologies known in the art.

[2] = target: T1, GST-pRbABC/E2F complex disrupted by 6×His-HPV1AE7CR2-3 (Homo sapiens, UniProt P06400); experiment: ELISA: inhibition of HPV1A-E7-mediated disruption of pRb/E2F complexes; format: binding, low risk HPV (type 1A); details: E2F remaining bound to pRb; 500 nM 1AE7
T1 construct: made in house; host or cells: pRb: Sf9; E2F1 and E7: E. coli BL21(DE3)
T1 sequence (P06400 376-928): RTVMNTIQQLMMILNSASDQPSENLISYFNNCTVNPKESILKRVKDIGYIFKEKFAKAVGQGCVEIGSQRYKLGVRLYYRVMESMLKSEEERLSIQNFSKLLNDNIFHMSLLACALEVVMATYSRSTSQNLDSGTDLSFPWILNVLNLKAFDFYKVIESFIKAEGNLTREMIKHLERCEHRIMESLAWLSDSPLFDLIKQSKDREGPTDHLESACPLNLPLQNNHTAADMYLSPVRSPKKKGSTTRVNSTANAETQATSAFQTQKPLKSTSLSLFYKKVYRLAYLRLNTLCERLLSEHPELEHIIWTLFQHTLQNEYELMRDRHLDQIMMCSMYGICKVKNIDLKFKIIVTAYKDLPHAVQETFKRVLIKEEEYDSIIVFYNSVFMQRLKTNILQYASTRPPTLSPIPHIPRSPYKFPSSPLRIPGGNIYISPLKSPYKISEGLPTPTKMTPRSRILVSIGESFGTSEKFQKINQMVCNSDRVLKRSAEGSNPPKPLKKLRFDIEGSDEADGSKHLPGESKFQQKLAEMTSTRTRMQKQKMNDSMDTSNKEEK
T1 sequence (Q01094 243-437 partner limits assumed): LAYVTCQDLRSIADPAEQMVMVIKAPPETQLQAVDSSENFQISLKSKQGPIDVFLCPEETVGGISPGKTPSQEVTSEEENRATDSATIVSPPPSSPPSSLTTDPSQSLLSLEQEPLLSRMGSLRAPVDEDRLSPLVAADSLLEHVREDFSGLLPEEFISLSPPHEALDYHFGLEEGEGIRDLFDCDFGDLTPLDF
Protocol: (§1) Since HPV-E7 mediates high affinity pRb binding through the association of its L×C×E motif in CR2 to the B domain of pRb, the ability of the thiadiazolidinedione compounds to inhibit the ability of other L×C×E containing viral oncoproteins from disrupting E2F/pRb complexes was tested. The other L×C×E containing viral oncoproteins tested included HPV-E7 from a low risk HPV form (type 1A) and Adenovirus E1A proteins.
(§2) A similar ELISA assay was used to assess the ability of the compounds to inhibit the ability of HPV16-E7-mediated disruption of E2F/pRb complexes. For these studies, 6×His-HPV1AE7CR2-3 and 6×His-Ad5E1ACR1-3, containing the L×C×E motif, were employed. The assay described above was modified in such a way that GST-pRbABC alone was added to HPV-E7CR2-3+ compound, HPV-E7CR2-3+DMSO, Ad5-E1ACR1-3+ compound, or Ad5-E1ACR1-3 DMSO. Mouse monoclonal anti-His antibody (Fisher) diluted 1:10,000 was used to detect how much His-E7CR2-3 remained bound to GST-pRbABC on the plate. Mouse monoclonal Ad5-E1A antibody (Abeam) diluted 1:10,000 was used to detect how much E1ACR1-3 remained bound to GST-pRbABC on the plate. All other steps remained unchanged.

[3] = target: T2, GST-pRbABC/E2F complex disrupted by 6×His-Ad5E1ACR1-3 (Homo sapiens, UniProt P06400); experiment: ELISA: inhibition of adenovirus E1A-mediated disruption of pRb/E2F complexes; format: binding; details: E2F remaining bound to pRb; 100 nM E1A
T2 construct: made in house; host or cells: pRb: Sf9; E2F1 and E1A: E. coli BL21(DE3)
T2 sequence (P06400 376-928): T1 sequence (P06400 376-928)
T2 sequence (Q01094 243-437 partner limits assumed): T1 sequence (Q01094 243-437 partner limits assumed)
Protocol: as §1, §2

[4] = target: T3, GST-pRbABC/6×His-HPV1AE7CR2-3 complex (Homo sapiens, UniProt P06400); experiment: ELISA: disruption of pRb/HPV1A-E7 complex; format: binding, low risk HPV (type 1A); details: disruption of pRb/viral oncoprotein complex; 500 nM 1AE7
T3 construct: made in house; host or cells: pRb: Sf9; E7: E. coli BL21(DE3)
T3 sequence (P06400 376-928): T1 sequence (P06400 376-928)
Protocol: as §2

[5] = target: T4, GST-pRbABC/6×His-Ad5E1ACR1-3 complex (Homo sapiens, UniProt P06400); experiment: ELISA: disruption of pRb/Ad5-E1A complex; format: binding, adenovirus; details: disruption of pRb/viral oncoprotein complex; 100 nM E1A
T4 construct: made in house; host or cells: pRb: Sf9; E1A: E. coli BL21(DE3)
T4 sequence (P06400 376-928): T1 sequence (P06400 376-928)
Protocol: as §2

[6] = target: T5, pRbAB (Homo sapiens, UniProt P06400, DEL590-635); experiment: Isothermal titration calorimetry binding to pRbAB; details: for Kd: ITC, pRbAB, 22° C.
T5 construct: untagged pRbAB (372-787 with the linker from 590-635 removed); made in house
T5 sequence (P06400 with tags, fused parts or gaps DEL590-635): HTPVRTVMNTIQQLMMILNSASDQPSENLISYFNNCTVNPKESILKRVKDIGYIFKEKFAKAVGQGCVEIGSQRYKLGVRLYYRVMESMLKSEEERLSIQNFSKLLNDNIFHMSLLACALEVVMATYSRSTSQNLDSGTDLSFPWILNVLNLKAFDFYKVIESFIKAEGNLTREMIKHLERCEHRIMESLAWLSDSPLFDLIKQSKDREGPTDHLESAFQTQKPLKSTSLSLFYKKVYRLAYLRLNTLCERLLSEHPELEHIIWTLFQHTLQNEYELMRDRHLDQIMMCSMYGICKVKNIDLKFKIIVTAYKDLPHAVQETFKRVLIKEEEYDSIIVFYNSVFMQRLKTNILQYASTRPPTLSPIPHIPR
Protocol: For use in isothermal titration calorimetry studies, untagged pRbAB (372-787 with the linker from 590-635 removed) was prepared as described in Xiao et al., PNAS USA, 100:2363-2368 (2003).
This example illustrates the ability of the thiadiazolin-3,5-dione compounds to bind directly to a truncated pRb protein construct containing the A and B domains of the pRb pocket (pRbAB) using isothermal titration calorimetry (ITC).
Binding of compounds 1-9 to pRbAB were measured by ITC using a MicroCal™ VP-ITC isothermal titration calorimeter (MicroCal, Inc). Proteins were extensively dialyzed against a buffer containing Hepes (20 mM), pH=7.5, NaCl (150 mM) and Tris carboxy ethyl phosphine (0.1 mM) prior to analysis. Eight to twelve μL injections of 750-1500 μM compound were titrated into a pRb solution (50-150 μM) pre-equilibrated to 22° C. After subtraction of dilution heats, calorimetric data were analyzed with the MicroCal™ Origin® V5.0 (MicroCal Software, Northampton, Mass.).

[7] = target: T6, GST-pRbABC/6×His-HPV16-E7CR2-3 complex (Homo sapiens, UniProt P06400); experiment: ELISA: disruption of pRb/HPV16-E7 complex; format: binding; details: disruption of pRb/viral oncoprotein complex; 500 nM 16E7
T6 construct: made in house; host or cells: pRb: Sf9; E7: E. coli BL21(DE3)
T6 sequence (P06400 376-928): T1 sequence (P06400 376-928)
Protocol: An ELISA assay was utilized with modifications such that the amount of 6×His-HPV16-E7CR2-3 remaining bound to the partner protein on the plate could be measured. The compounds identified in Example 2 were purchased (Lankenau Institute for Medical Research) as powders. Their purity was verified by LC/MS and their structures by NMR. IC50 values were then measured for (i) the compounds identified in Example 1, (ii) the compounds prepared according to Examples 3-5, (iii) 2-phenyl-4-methyl-1,2,4-thiadiazolidin-3,5-dione (available from Molport, Latvia), and (iv) 4-benzyl-2-methyl-1,2,4-thiadiazolidin-3,5-dione (TDZD-8; Catalog No. T8325-5MG, Sigma) using the same ELISA-based assay as described for the high-throughput screen, except that the assay was performed manually in 96-well format and so all volumes used were double those from 384-well format.
All compounds were solubilized in DMSO (50 mM) and diluted for use in the ELISA-based assay at a final DMSO concentration of less than 5%. Ten-fold dilutions of thiadiazolin-3,5-dione compound (starting at 100 μM) were added to a mixture containing GST-pRbABC and 6×His-HPV16E7CR2-3. The amount of E7 remaining was determined by adding a primary anti-His antibody. The concentrations of the compounds in the IC50 experiment spanned the range of enzyme activity from no inhibition to complete inhibition. Three independent IC50 measurements were performed for each compound and the average and standard deviation values are reported. All data was imported into the GraphPad® Software (Prism) for IC50 determination. To calculate the IC50 values, the dose-response curves were fit to one-site (Hill slope=1) sigmoidal-dose-response curves.

[8] = test system: SiHa cells (HPV 16); experiment: MTS cytotoxicity in SiHa cells; format: cell-based; details: 48 hours
Protocol: These 120 compounds were then analyzed for cytotoxicity in cervical cancer cells either infected with HPV16 (SiHa) or negative for infection with HPV (C-33A) (Yee et al., 1985). The metabolic viability of cells was measured using a MTS assay (3-(4,5-dimethylthiazol-2-yl)-5-(3-carboxymethoxyphenyl)-2-(4-sulfophenyl)-2H-tetrazolium).
(§3) Cultured cell lines were seeded in 384-well, clear, tissue culture plates (NUNC) at 10,000 cells/well and 1,000 cells/well for C-33A and SiHa, respectively, and maintained overnight. These concentrations were determined based on each cell line's doubling time. […] Cell viability was then monitored by addition of MTS reagent (8 μL; Promega) and measurement at A490 using a Wallac Envision™ plate reader after 3 hours of incubation.
as §3, with “10,000 cells/well, 1,000 cells/well, 1,000 cells/well, 1,000 cells/well,” for “10,000 cells/well”, “and 2,000” for “and 1,000”, “for C-33A,” for “for C-33A and”, “SiHa, HeLa, TC-1, or HCT116 cells,” for “SiHa,”

[9] = 10 μM compound (staurosporine 2 μM)
[10] = SiHa, 10 μM compound (staurosporine 2 μM)

Row | SMILES | morphology of SiHa cells [1] | effect on SiHa cells [1, 9] | % Apoptotic [1, 10] | % G0/G1 [1, 10] | % G2/M [1, 10] | % S [1, 10] | IC50 [2] | IC50 [3] | IC50 [4] | IC50 [5] | Kd [6] | IC50 [7] | reversibility of binding to pRb ([6]; ITC repeated after overnight dialysis of pRb/compound complex) | cytotoxicity in SiHa cells [8]
1 | Cn1c(=O)on(-c2ccc(Cl)c(Cl)c2)c1=O [2-(3,4-dimethyl-phenyl)-4-methyl-1,2,4-oxadiazolin-3,5-dione, reference compound] | maintained the elongated shape | no effect | 0.9% | 71.8% | 16.3% | 11.3% |  |  |  |  |  |  |  | 
2 | Cc1ccccc1-n1sc(=O)n(C(C)C)c1=O [Compound 1] |  |  |  |  |  |  | 10.6 ± 1.3 µM | 2.8 ± 2.2 µM | 7.9 ± 2.1 µM | 5 ± 1.8 µM | 0.165 ± 0.052 µM |  |  | 
3 | COn1c(=O)sn(-c2ccccc2C)c1=O [Compound 2] |  |  |  |  |  |  | 3.5 ± 1.6 µM | 0.64 µM | 3 ± 2.3 µM | 2.6 ± 1.3 µM | 0.104 ± 0.025 µM | 0.57 ± 1.2 µM |  | 
4 | Cc1ccccc1-n1sc(=O)n(C)c1=O [Compound 3] |  | most drastically affected | 6.5% |  |  | 15.4% | 4.5 ± 1.7 µM | 0.24 µM | 3.4 ± 2 µM | 1 ± 2.1 µM | 0.106 ± 0.034 µM | 0.5 ± 1.5 µM | reversible | 
5 | Cc1cc(Cl)ccc1-n1sc(=O)n(C(C)C)c1=O [Compound 4] |  | most drastically affected | 15.2% |  |  | 15.8% | 5.5 ± 1.7 µM | 1.3 ± 2.2 µM | 4.7 ± 2.1 µM | 3.8 ± 1.5 µM | 0.187 ± 0.022 µM | 4.5 ± 1.5 µM |  | 
6 | Cc1cccc(-n2sc(=O)n(C(C)C)c2=O)c1 [Compound 5] |  |  |  |  |  |  | 5.5 ± 1.5 µM | 1.1 ± 2.5 µM | 5.5 ± 2.7 µM | 3.5 ± 1.7 µM | 0.21 ± 0.051 µM | 3.2 ± 1.3 µM |  | 
7 | COc1ccc(-n2sc(=O)n(C)c2=O)cc1 [Compound 6] |  |  |  |  |  |  | 3.3 ± 1.6 µM | 1.7 ± 2.7 µM | 1.3 ± 1.3 µM | 7.7 ± 1.7 µM | 0.381 ± 0.031 µM | 0.4 µM |  | 
8 | COc1cccc(-n2sc(=O)n(C)c2=O)c1 [Compound 7] |  |  |  |  |  |  | 3.5 ± 1.7 µM | 3.2 ± 2.7 µM | 4 ± 2.5 µM | 2.8 ± 2.1 µM | 0.815 ± 0.07 µM | 0.29 µM |  | 
9 | CN[C@@H]1C[C@H]2O[C@@](C)([C@@H]1OC)n1c3ccccc3c3c4c(c5c6ccccc6n2c5c31)C(=O)NC4 [Staurosporine, reference compound] |  | most drastically affected | 34.3% | 31.3% |  | 13.8% |  |  |  |  |  |  |  | toxic
